Converted amounts (≈) assume the structure as drawn. “And” between values parts separate entries of the source, which are not always exact repeats. Identical values can stand only once.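 Following 48 hours of exposure in 96-well plates, responses at five concentrations were used to interpolate endpoints linearly. GI50 = concentration required for 50% inhibition of growth. TGI: total growth inhibition.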
How the values were obtained:
P388 leukemia = assay: NCI tumour cell line growth inhibition, 48 h
P388/ADR leukemia = assay: NCI tumour cell line growth inhibition, 48 h

Cc1c[nH]c2c(O)cc3c(c12)[C@H](CCl)CN3C(=O)c1cc2cc(NC(=O)Nc3ccc4[nH]c(C(=O)N5C[C@@H](CCl)c6c5cc(O)c5[nH]cc(C)c65)cc4c3)ccc2[nH]1
GI50 (P388 leukemia): 0.000887 ng/mL and 0.888 ng/mL
GI50 (P388/ADR leukemia): 0.888 ng/mL (≈ 0.00109 µM)
TGI (P388/ADR leukemia): 83 ng/mL (≈ 0.102 µM)

Reference: PubChem BioAssay (NCI)
